From US20220354844A1, “METHODS OF TREATING METABOLIC DISEASES WITH FUSED BICYCLIC PYRAZOLES” (Belite Bio, Inc, priority 2017, published 2022)
Values joined by “and” are separate entries in the source; they are usually repeats but may differ in a detail not shown here. Identical values can stand only once.

Tests used:
[1] = Compound 1 single dose non-human primate PK study; assay type: in vivo, Cynomolgus Macaques; conditions: NHP; for Vd: read-out: Vss
Experimental: A pharmacokinetic study of Compound 1 following a single intravenous or oral dose administration to non-human primates (Cynomolgus Macaques) was conducted, the results of which are found in Table 2 and FIGS. 1-8.

[2] = Compound 1 single dose rat PK study; assay type: in vivo, male Sprague Dawley rats; conditions: for Vd: read-out: Vss
Experimental: A pharmacokinetic study of Compound 1 following a single intravenous or oral dose administration to male Sprague Dawley rats was conducted, the results of which are found in Table 3 and FIGS. 9-14.

[3] = Compound 1 single dose mouse PK study; assay type: in vivo, male CD-1 mice
Experimental: A pharmacokinetic study of Compound 1 following a single intravenous or oral dose administration to male CD-1 mice was conducted, the results of which are found in Table 4 and FIGS. 15-20.

[4] = tested on: Subjects with NAFLD or NASH; assay: Treatment of NAFLD and NASH in humans; assay type: in vivo, human; conditions: 50 or 100 mg/day for 6 months
Experimental: Subjects with NAFLD or NASH are treated with doses of either 50 or 100 mg/day of compound 1 or 2 for 6 months. Subjects are permitted their usual other medications (e.g. antidiabetic medications such as metformin or […]) but not glitazones, PPAR agonists, OCA, or similar medications. The subjects are assessed before the study, and at intervals during the study, such as every 4 weeks during the study and 4 weeks after the last dose of compound 1 or 2, for safety and pharmacodynamic evaluations.
MRIs of the subjects' livers are taken every 4 weeks during the study and 4 weeks after completion of compound 1 or 2 dosing, to determine hepatic fat; and liver biopsies are taken before the study (to establish the diagnosis) and 4 weeks after completion of compound 1 or 2 dosing. At each visit, after a 12-hour fast, blood is drawn and urine collected; and a standard metabolic panel, complete blood count, and standard urinalysis are performed. Blood is analyzed for total cholesterol, HDL-C, LDL-C, VLDL-C, TGs, apoB, and liver transaminases. The subjects also maintain health diaries, which are reviewed at each visit.

[5] = single iv dose 1 mg/kg, individual animals, 1 mg/kg
[6] = single po dose 5 mg/kg, individual animals, 5 mg/kg
[7] = cynomolgus monkey, plasma, iv, 1 mg/kg, single iv dose 1 mg/kg, Mean of the 3 animals
[8] = cynomolgus monkey, plasma, iv, 1 mg/kg, single iv dose 1 mg/kg, individual animals
[9] = cynomolgus monkey, plasma, po, 5 mg/kg, single po dose 5 mg/kg, Mean of the 3 animals
[10] = cynomolgus monkey, plasma, po, 5 mg/kg, single po dose 5 mg/kg, individual animals
[11] = male, Sprague Dawley, plasma, iv, 2 mg/kg, single iv dose 2 mg/kg, Mean of the 3 rats
[12] = male, Sprague Dawley, plasma, iv, 2 mg/kg, single iv dose 2 mg/kg, individual rats
[13] = male, Sprague Dawley, plasma, po, 5 mg/kg, single po dose 5 mg/kg, Mean of the 3 rats
[14] = male, Sprague Dawley, plasma, po, 5 mg/kg, single po dose 5 mg/kg, individual rats
[15] = single iv dose 2 mg/kg, individual rats, 2 mg/kg
[16] = single po dose 5 mg/kg, individual rats, 5 mg/kg
[17] = male, CD-1, plasma, single iv dose 2 mg/kg
[18] = male, CD-1, plasma, single po dose 5 mg/kg

## CC(=O)N1CCc2c(C(=O)N3CCC(c4ccc(F)c(F)c4C(F)(F)F)CC3)n[nH]c2C1 [Compound 1, 1-(3-(4-(3,4-difluoro-2-(trifluoromethyl)phenyl)piperidine-1-carbonyl)-1,4,5,7-tetrahydro-6H-pyrazolo[3,4-c]pyridin-6-yl)ethan-1-one]
[1]; [5]
  AUC inf: 5217 hr.ng/m1 and 3761 hr.ng/m1
  AUCLAST: 5165 ng·h/mL and 3731 ng·h/mL
  Cl: 3.2 mL/min/kg and 4.43 mL/min/kg
  Cmax: 968 ng/mL and 704 ng/mL
  MRT last: 6.8 h and 6.7 h
  MRTinf: 7.3 h and 7.1 h
  Vss: 1.399 L/kg and 1.886 L/kg
  t1/2: 7.8 h and 7.4 h
[1]; single po dose 5 mg/kg, Mean of the 3 animals
  F: 18.7%
[1]; [6]
  AUC inf: 3601 hr.ng/m1 and 3918 hr.ng/m1
  AUCLAST: 3525 ng·h/mL and 3852 ng·h/mL
  Cmax: 363 ng/mL and 369 ng/mL
  F: 21.6% and 16.5%
  MRT last: 10.0 h and 10.3 h
  MRTinf: 11.1 h
  Tmax: 2 h
  t1/2: 8.7 h and 8.1 h
[1]; [7]
  AUC(0-inf): 4370 ng·h/mL
  AUC(0-t): 4340 ng·h/mL
  MRT inf: 6.9 h
  clearance: 3.88 mL/min/kg
  half-life: 7.7 h
  Vd: 1.6 L/kg
[1]; cynomolgus monkey, plasma, iv, 1 mg/kg, single iv dose 1 mg/kg, Mean of the 3 animals, first plasma collection time listed as Tmax, read-out: Tmax
  Tmax: 0.27 h
[1]; cynomolgus monkey, plasma, iv, 1 mg/kg, single iv dose 1 mg/kg, Mean of the 3 animals, read-out: Cmax
  Cmax: 881 ng/mL
[1]; cynomolgus monkey, plasma, iv, 1 mg/kg, single iv dose 1 mg/kg, Mean of the 3 animals, read-out: MRT last
  MRT last: 6.4 h
[1]; [8]
  AUC(0-inf): 4140 ng·h/mL
  AUC(0-t): 4110 ng·h/mL
  MRT inf: 6.3 h
  clearance: 4.02 mL/min/kg
  half-life: 7.8 h
  Vd: 1.52 L/kg
[1]; cynomolgus monkey, plasma, iv, 1 mg/kg, single iv dose 1 mg/kg, individual animals, read-out: Cmax
  Cmax: 970 ng/mL
[1]; cynomolgus monkey, plasma, iv, 1 mg/kg, single iv dose 1 mg/kg, individual animals, read-out: MRT last
  MRT last: 5.9 h
[1]; [9]
  AUC(0-inf): 4080 ng·h/mL
  AUC(0-t): 3990 ng·h/mL
  MRT inf: 11.3 h
  half-life: 8.5 h
[1]; cynomolgus monkey, plasma, po, 5 mg/kg, single po dose 5 mg/kg, Mean of the 3 animals, read-out: Cmax
  Cmax: 406 ng/mL
[1]; cynomolgus monkey, plasma, po, 5 mg/kg, single po dose 5 mg/kg, Mean of the 3 animals, read-out: MRT last
  MRT last: 10.2 h
[1]; cynomolgus monkey, plasma, po, 5 mg/kg, single po dose 5 mg/kg, Mean of the 3 animals, read-out: Tmax
  Tmax: 1.67 h
[1]; [10]
  AUC(0-inf): 4720 ng·h/mL
  AUC(0-t): 4580 ng·h/mL
  MRT inf: 11.7 h
  half-life: 8.8 h
[1]; cynomolgus monkey, plasma, po, 5 mg/kg, single po dose 5 mg/kg, individual animals, read-out: Cmax
  Cmax: 485 ng/mL
[1]; cynomolgus monkey, plasma, po, 5 mg/kg, single po dose 5 mg/kg, individual animals, read-out: MRT last
  MRT last: 10.2 h
[1]; cynomolgus monkey, plasma, po, 5 mg/kg, single po dose 5 mg/kg, individual animals, read-out: Tmax
  Tmax: 1 h
[2]; [11]
  AUC(0-inf): 3970 ng·h/mL
  AUC(0-t): 3950 ng·h/mL
  MRT inf: 3.3 h
  MRT last: 3 h
  clearance: 8.68 mL/min/kg
  Vd: 1.68 L/kg
[2]; male, Sprague Dawley, plasma, iv, 2 mg/kg, single iv dose 2 mg/kg, Mean of the 3 rats, first plasma collection time listed as Tmax
  Tmax: 0.08 h
[2]; male, Sprague Dawley, plasma, iv, 2 mg/kg, single iv dose 2 mg/kg, Mean of the 3 rats, read-out: Cmax
  Cmax: 1870 ng/mL
[2]; male, Sprague Dawley, plasma, iv, 2 mg/kg, single iv dose 2 mg/kg, Mean of the 3 rats, read-out: t1/2 (converted)
  half-life: 8.5 h
[2]; [12]
  AUC(0-inf): 3610 ng·h/mL
  AUC(0-t): 3600 ng·h/mL
  MRT inf: 3 h
  MRT last: 2.8 h
  clearance: 9.23 mL/min/kg
  Vd: 1.69 L/kg
[2]; male, Sprague Dawley, plasma, iv, 2 mg/kg, single iv dose 2 mg/kg, individual rats, first plasma collection time listed as Tmax
  Tmax: 0.08 h
[2]; male, Sprague Dawley, plasma, iv, 2 mg/kg, single iv dose 2 mg/kg, individual rats, read-out: Cmax
  Cmax: 1670 ng/mL
[2]; male, Sprague Dawley, plasma, iv, 2 mg/kg, single iv dose 2 mg/kg, individual rats, read-out: t1/2 (converted)
  half-life: 8.6 h
[2]; [13]
  AUC(0-inf): 2680 ng·h/mL
  AUC(0-t): 2640 ng·h/mL
  MRT inf: 9.9 h
  MRT last: 9 h
  Tmax: 1.42 h
[2]; male, Sprague Dawley, plasma, po, 5 mg/kg, single po dose 5 mg/kg, Mean of the 3 rats, read-out: Cmax
  Cmax: 390 ng/mL
[2]; [14]
  AUC(0-inf): 3210 ng·h/mL
  AUC(0-t): 3170 ng·h/mL
  MRT inf: 8.7 h
  MRT last: 8 h
[2]; male, Sprague Dawley, plasma, po, 5 mg/kg, single po dose 5 mg/kg, individual rats, read-out: Cmax
  Cmax: 456 ng/mL
[2]; male, Sprague Dawley, plasma, po, 5 mg/kg, single po dose 5 mg/kg, individual rats, read-out: t1/2 (converted)
  half-life: 8.2 h
[2]; male, Sprague Dawley, plasma, po, 5 mg/kg, t1/2, rat, single po dose 5 mg/kg, Mean of the 3 rats, heading: t1/2
  half-life: 7.6 h
[2]; [15]
  AUCLAST: 5020 ng·h/mL and 3244 ng·h/mL
  AUCinf: 5055 ng·h/mL and 3256 ng·h/mL
  Cl: 6.6 mL/min/kg and 10.2 mL/min/kg
  Cmax: 2400 ng/mL and 1536 ng/mL
  MRTinf: 3.7 h and 3.1 h
  MRTlast: 3.2 h and 2.9 h
  t1/2: 11.0 h and 6.0 h
[2]; single po dose 5 mg/kg, Mean of the 3 rats
  F: 27.0%
[2]; [16]
  AUCLAST: 2683 ng·h/mL and 2069 ng·h/mL
  AUCinf: 2698 ng·h/mL and 2138 ng·h/mL
  Cmax: 274 ng/mL and 440 ng/mL
  F: 32.3% and 27.2% and 21.5%
  MRTinf: 8.2 h and 12.8 h
  MRTlast: 11.2 h
  t1/2: 6.2 h and 8.5 h
[3]; [17]
  AUC(0-inf): 2460 ng·h/mL
  AUC(0-t): 2400 ng·h/mL
  MRT inf: 2.5 h
  MRT last: 2.2 h
  clearance: 13.5 mL/min/kg
  half-life: 2.1 h
[3]; male, CD-1, plasma, single iv dose 2 mg/kg, maximum observed concentration at first time point
  Cmax: 1460 ng/mL
[3]; male, CD-1, plasma, single iv dose 2 mg/kg, read-out: Vss
  Vd: 2.02 L/kg
[3]; [18]
  AUC(0-inf): 1810 ng·h/mL
  AUC(0-t): 1800 ng·h/mL
  Cmax: 278 ng/mL
  MRT inf: 5 h
  MRT last: 4.9 h
  Tmax: 0.25 h
  half-life: 2.9 h
[3]; male, CD-1, single iv dose 2 mg/kg, first plasma collection time
  Tmax: 0.08 h
[3]; single po dose 5 mg/kg
  F: 29.4%
[4]
  improvement in their disease, as manifested by MRI and liver biopsy: dose-related improvement
